# In US4774248A, “Methods of treating depression and depressive states using 5-phenyl-1,4,5,6-tetrahydropyrimidine derivatives” (priority 1985, dated 1988):
# “Also recorded” adds a separate entry of the source.
# Legend:
# [1] = tested on: hypothermia and ptosis induced by reserpine; assay: Interaction with reserpine; assay type: in vivo; settings: mice, i.p.; reserpine 2.5 mg/kg
# Method: (§1) The results of toxicological and neuropsychopharmacological tests which were carried out with the products according to the invention have been summarized below. In these tests, solutions of the said products in distilled water were administered intraperitoneally in a volume of 20 ml/kg to male mice and in a volume of 5 ml/kg to male rats.
# Four hours after the intraperitoneal injection of 2.5 mg/kg of reserpine, groups of 12 mice receive CRL 41 378.
# mice [2] = assay: Electric shock; assay type: in vivo; settings: i.p.
# Method: as §1
# The test is performed on groups of 10 mice 30 minutes after the administration of CRL 41 378.
# mice [3] = assay: Motility reduced by hypoxic aggression (acute hypobaric anoxia); assay type: in vivo; settings: i.p.
# Method: In these tests, solutions of the said products in distilled water were administered intraperitoneally in a volume of 20 ml/kg to male mice and in a volume of 5 ml/kg to male rats.
# mice [4] = assay: Overall behavior and reactivities in mice; assay type: in vivo; settings: i.p.
# Method: as §1
# (§2) Groups of 3 animals are observed before and then 0.25 h, 0.50 h, 1 h, 2 h, 3 h and 24 h after the administration of CRL 41 378. The following observations are made:
# (§3) Groups of 3 animals are observed before and then 0.25 h, 0.50 h, 1 h, 2 h, 3 h and 24 h after the administration of CRL 41 329.
# male mice = assay: Acute toxicity, intraperitoneal (LD0, LD30, LD60, LD100); assay type: in vivo
# Method: as §1
# [5] = as above; assay type: in vivo; settings: mouse, in vivo, ip; 128 mg/kg i.p., male mice; read-out: death 24 h after administration
# Method: as §1
# [6] = tested on: stereotypies induced by apomorphine; assay: Interaction with apomorphine in rats; assay type: in vivo; settings: i.p., apomorphine 0.5 mg/kg s.c.
# Method: as §1
# CRL 41 378 is administered to groups of 12 rats 0.5 h before the subcutaneous injection of 0.5 mg/kg of apomorphine.
# [7] = tested on: hypothermia, righting behavior and stereotypies induced by apomorphine; assay: Interaction with apomorphine in mice; assay type: in vivo; settings: i.p.
# Method: as §1
# CRL 41 378 is administered to groups of 6 mice 30 minutes before the subcutaneous injection of 1 or 16 mg/kg of apomorphine.
# [8] = tested on: hypothermia, trembling and peripheral cholinergic symptoms induced by oxotremorine; assay: Interaction with oxotremorine; assay type: in vivo; settings: mice, i.p.; oxotremorine 0.5 mg/kg
# Method: as §1
# CRL 41 378 is administered to groups of 6 mice 0.5 h before the intraperitoneal injection of 0.5 mg/kg of oxotremorine.
# mice [9] = assay: Intergroup aggressiveness; assay type: in vivo; settings: mice, i.p.
# Method: as §1
# After they have stayed for 3 weeks in the two halves of a cage divided by an opaque partition, groups of 3 mice receive CRL 41 378. Half an hour later, the two groups from the same cage are brought together by removal of the partition and the number of fights which occur in 10 minutes is noted.
# rats = assay: Overall behavior and reactivities in rats; assay type: in vivo; settings: i.p.
# Method: as §1, §2, §3
# mice [10] = assay: Spontaneous motility (actimeter); assay type: in vivo; settings: i.p.
# Method: as §1
# 0.5 h after they have received CRL 41 378, the mice (6 per dose, 12 control animals) are placed in an actimeter, where their motility is recorded for 30 minutes.
# [11] = tested on: central nervous system (CNS); assay: Neuropsychopharmacological profile (conclusions of the tests); assay type: in vivo, mice and rats; settings: i.p.
# Method: as §1
smiles,measurement,setting,value
"Cl.Clc1ccc(C2CN=CNC2)cc1 (stereo not drawn) [CRL 41 336, 5-(4-chlorophenyl)-1,4,5,6-tetrahydropyrimidine hydrochloride]",action on hypothermia induced by reserpine,[1],more moderate antagonism of the hypothermia induced by reserpine
same,lethal effects of electric shock,mice [2],aggravation of the lethal effect of electric shock
same,motor recovery after acute hypobaric hypoxia,mice [3],a decrease in the motility after acute hypobaric hypoxia
same,moderate hypothermia,"mice [4]; 32 mg/kg, from 1 to 3 hours",-1.3 °C
same,overall behavior and reactivities,"mice [4]; 32 mg/kg, hydrochloride",sedation for 0.25 h; also recorded: a decrease in the breathing rate from 1 to 3 hours; also recorded: moderate hypothermia; also recorded: vasodilation of the ears and tail from 0.5 h to 3 h
same,overall behavior and reactivities,mice [4]; 0.5 to 8 mg/kg,no distinct modification of the behavior and reactivities
same,toxic signs in the animals treated,male mice; 64 mg/kg i.p.,all the animals treated exhibit sedation and a decrease in the breathing rate
same,toxic signs in the animals treated,male mice; 128 mg/kg i.p.,the animals exhibit sedation and a decrease in the breathing rate
same,LD0 (maximum non-lethal dose),male mice; intraperitoneal,greater than 64 mg/kg
same,LD60,male mice; intraperitoneal,about 128 mg/kg
same,LD100 (minimum dose lethal to all the animals),male mice; intraperitoneal,200 to 210 mg/kg
same,mortality at 24 h,[5],60%
same,action on stereotypies induced by apomorphine,[6],decreases the stereotypies induced by apomorphine in rats and mice
same,action on hypothermia induced by apomorphine,[7],distinct antagonism of the hypothermia induced by apomorphine and oxotremorine
same,action on righting behavior and stereotypies due to apomorphine,[7],decreases the stereotypies induced by apomorphine in rats and mice
same,action on hypothermia induced by oxotremorine,[8],distinct antagonism of the hypothermia induced by apomorphine and oxotremorine
same,intergroup aggressiveness (number of fights),mice [9],a decrease in the intergroup aggressiveness in mice
same,overall behavior and reactivities,rats; 4 mg/kg,mydriasis for 2 hours (maximum 0.5 h after administration)
same,overall behavior and reactivities,"rats; 16 mg/kg, hydrochloride",sedation for 3 h; also recorded: a decrease in the breathing rate for 3 h; also recorded: mydriasis for 3 h (with its maximum intensity 0.5 h after administration); also recorded: piloerection for 1 h; also recorded: vasodilation (of the paws) for 2 h
same,overall behavior and reactivities,rats; 0.25 and 1 mg/kg,"behavior, reactivities and variations in rectal temperature and pupil diameter which are substantially comparable to those of the animals in the control group"
same,spontaneous motor activity,mice [10],a decrease in the spontaneous motor activity
same,antidepressant effects,[11],antidepressant effects
same,peripheral α-adrenergic stimulant effects,[11],"peripheral α-adrenergic stimulant effects appearing at high doses, especially as mydriasis and piloerection in rats"
same,sedative effects,[11]; hydrochloride,sedation in mice and rats; also recorded: hypothermia (transient) in mice
